Values after ≈ are worked out from the molar mass of the structure shown. Read-outs that look alike come from different tables or passages of the source.
Assays:
Experiment in all cases: In vitro antibacterial activity, microtitration dilution method (MIC)
Type in all cases: cell-based
Escherichia coli Vogel = details: Escherichia coli Vogel, microtitration dilution; read-out: Minimal Inhibitory Concentration MIC
Description: (§1) The compounds of the invention display antibacterial activity when tested by the microtitration dilution method as described in Heifetz, et al, Antimicr. Agents & Chemoth., 6, 124 (1974), which is incorporated herein by reference. By use of this method, the followed minimum inhibitory concentration values (MICs in μg/mL) were obtained for representative compounds of the invention.

[1] = test system: Streptococcus pyogenes C-203; details: C203; Streptococcus pyogenes C-203, microtitration dilution; read-out: Minimal Inhibitory Concentration MIC
Description: as §1

[2] = test system: Providencia rettgeri M 1771; details: M1771; Providencia rettgeri M 1771, microtitration dilution; read-out: Minimal Inhibitory Concentration MIC
Description: as §1

[3] = test system: Staphylococcus aureus H 228; details: H228; Staphylococcus aureus H 228, microtitration dilution; read-out: Minimal Inhibitory Concentration MIC
Description: as §1

[4] = test system: Enterobacter cloacae MA 2646
Description: as §1

[5] = test system: Pseudomonas aeruginosa UI-18; details: UI18; Pseudomonas aeruginosa UI-18, microtitration dilution; read-out: Minimal Inhibitory Concentration MIC
Description: (§2) Agents & Chemoth., 6, 124 (1974), which is incorporated herein by reference.

[6] = test system: Klebsiella pneumoniae MGH-2
Description: as §2

[7] = test system: Staphylococcus aureus UC-76; details: UC76; Staphylococcus aureus UC-76, microtitration dilution; read-out: Minimal Inhibitory Concentration MIC
Description: as §2

[8] = test system: Streptococcus pneumoniae SV-1; details: SV1; Streptococcus pneumoniae SV-1, microtitration dilution; read-out: Minimal Inhibitory Concentration MIC
Description: as §2

[9] = test system: Streptococcus faecalis MGH-2; details: Enterococcus faecalis, MGH2; Streptococcus faecalis MGH-2, microtitration dilution; read-out: Minimal Inhibitory Concentration MIC
Description: as §2

[10] = MA2646, Enterobacter cloacae MA 2646, microtitration dilution, read-out: Minimal Inhibitory Concentration MIC
[11] = MGH2, Klebsiella pneumoniae MGH-2, microtitration dilution, read-out: Minimal Inhibitory Concentration MIC

Row | SMILES | MIC (Escherichia coli Vogel) [µg/mL] | MIC [1] [µg/mL] | MIC [2] [µg/mL] | MIC [3] [µg/mL] | MIC [4, 10] [µg/mL] | MIC [5] [µg/mL] | MIC [6, 11] [µg/mL] | MIC [7] [µg/mL] | MIC [8] [µg/mL] | MIC [9] [µg/mL] | MIC ([4]; Enterobacter cloacae, MA2646, read-out: Minimal Inhibitory Concentration MIC) [µg/mL] | MIC ([6]; Klebsiella pneumoniae, MGH2, read-out: Minimal Inhibitory Concentration MIC) [µg/mL]
1 | Cc1c(F)c(N2CCC(N)C2)c(F)c2c1c(=O)c(C(=O)O)cn2C1CC1 (stereo not drawn) [Ex. 2, 7-(3-Amino-1-pyrrolidinyl)-1-cyclopropyl-6,8-difluoro-1,4-dihydro-5-methyl-4-oxo-3-quinolinecarboxylic acid] | 0.006 (≈ 0.0165 µM) | 0.013 (≈ 0.0358 µM) | 0.025 (≈ 0.0688 µM) | 0.013 (≈ 0.0358 µM) | 0.006 (≈ 0.0165 µM) | 0.4 (≈ 1.1 µM) | 0.013 (≈ 0.0358 µM) | 0.003 (≈ 0.00826 µM) | 0.003 (≈ 0.00826 µM) | 0.025 (≈ 0.0688 µM) | – | –
2 | Cc1c(F)c(N2CCC(C)(CN)C2)c(F)c2c1c(=O)c(C(=O)O)cn2C1CC1 (stereo not drawn) [Ex. 4, 7-[3-(Aminomethyl)-3-methyl-1-pyrrolidinyl]-1-cyclopropyl-6,8-difluoro-1,4-dihydro-5-methyl-4-oxo-3-quinolinecarboxylic acid] | 0.05 (≈ 0.128 µM) | 0.003 (≈ 0.00766 µM) | 0.2 (≈ 0.511 µM) | 0.006 (≈ 0.0153 µM) | – | 0.8 (≈ 2.04 µM) | – | 0.003 (≈ 0.00766 µM) | 0.003 (≈ 0.00766 µM) | 0.025 (≈ 0.0639 µM) | 0.05 (≈ 0.128 µM) | 0.1 (≈ 0.255 µM)
3 | Cc1c(F)c(N2CCNCC2)c(F)c2c1c(=O)c(C(=O)O)cn2C1CC1 [Ex. 1, 1-Cyclopropyl-6,8-difluoro-1,4-dihydro-5-methyl-4-oxo-7-(1-piperazinyl)-3-quinolinecarboxylic acid] | 0.025 (≈ 0.0688 µM) | 0.05 (≈ 0.138 µM) | 0.05 (≈ 0.138 µM) | 0.025 (≈ 0.0688 µM) | 0.025 (≈ 0.0688 µM) | 0.2 (≈ 0.55 µM) | 0.025 (≈ 0.0688 µM) | 0.025 (≈ 0.0688 µM) | 0.025 (≈ 0.0688 µM) | 0.05 (≈ 0.138 µM) | – | –
